Columns and labels:
[1] = system: phosphorylation of ERK, KRAS G12C in NCI-H358 cells; test: pERK inhibition assay; type: cell-based; conditions: Homo sapiens, NCI-H358, 4 h
Procedure: (§1) This assay is to measure the ability of test compounds in inhibiting the phosphorylation of ERK, the downstream signaling of KRAS G12C in NCI-H358 cells, KRAS G12D in AGS cells, and KRAS G12V in SW620. NCI-H358 (ATCC-CRL5807) cells, AGS (ATCC-CRL-1739) cells, SW620 (ATCC-CCL-227) cells were all grown and maintained using RPMI-1640 medium (Thermo Fisher Scientific) with 10% fetal bovine serum and 1% penicillin/streptomycin. On the day prior to compound addition, cells were plated in tissue culture-treated 96 well plates (Corning-3699) at a density of 30,000 cell/well, 20,000 cell/well, 30,000 cell/well for NCI-H358, AGS and SW620 respectively, and allowed for attachment overnight. Diluted compounds were then added in a final concentration of 0.5% DMSO. After 4 hours of incubation, the medium was removed, 100 μL of 4% formaldehyde was added, and the assay plates were incubated at room temperature for 20 minutes. The plates were then washed once with phosphate buffered saline (PBS), and permeabilized with 100 μL of chilled methanol for 10 minutes. Non-specific antibody binding to the plates was blocked using 50 μL 1X BSA blocking buffer (Thermo-37520, 10-fold dilution by Phosphate-Buffered Saline Tween (PBST) for at least 1 hour at room temperature.
(§2) The amount of phosphor-ERK was determined using an antibody specific for phosphorylated form of ERK. Primary antibody (PERK, CST-4370, Cell Signaling Technology) was diluted 1:300 in blocking buffer, with 50 μL aliquoted to each well, and incubated overnight at 4° C. Cells was washed five times for 5 minutes with PBST. Secondary antibody (HRP-linked anti-rabbit IgG, CST-7074, Cell Signaling Technology) was diluted 1:1000 in blocking buffer, and 50 μL was added to each well and incubated 1-2 hrs at room temperature. Cells was washed […] for 5 minutes with PBST, 100 μL TMB ELISA substrate (abcam-ab171523) were added and gently shake for 20 minutes. 50 μL stop solution (abcam-ab 171529) were added, and then read the signal (OD450) by EnVision.
(§3) IC50 was determined by fitting a 4-parameter sigmoidal concentration response model.

[2] = system: phosphorylation of ERK, KRAS G12D in AGS cells; test: pERK inhibition assay; type: cell-based; conditions: Homo sapiens, AGS, 4 h
Procedure: as §1, §2, §3

[3] = system: phosphorylation of ERK, KRAS G12V in SW620; test: pERK inhibition assay; type: cell-based; conditions: Homo sapiens, SW-620, 4 h, SW620 cells
Procedure: as §1, §2, §3

AGS cells (KRAS G12D) = test: Cell viability assay (Cell Counting Kit-8, 3-day); type: cell-based, human; conditions: Homo sapiens, 72 h, 72 hrs incubation
Procedure: (§4) The purpose of this cellular assay was to determine the effects of test compounds on the proliferation of human cancer cell lines NCI-H358 (ATCC-CRL5807) cells, AGS (ATCC-CRL-1739) cells, SW620 (ATCC-CCL-227) over a 3-day treatment period by quantifying the amount of NADPH present at endpoint using Cell Counting Kit-8.
(§5) Cells were seeded at 5,000 cells/well (NCI-H358), 2,000 cells/well (AGS) 2,000 cells/well (SW620) in 96-well assay plates (Corning-3699) and incubated overnight. On the day of the assay, diluted compounds were then added in a final concentration of 0.5% DMSO. After 72 hrs incubation, a tenth of the volume of cell counting kit 8 (Dnjindo-CK04) was added into each well. Read the signal (OD450 minus OD650) using EnVision after 2 hrs incubation. IC50 was determined by fitting a 4-parameter sigmoidal concentration response model.

[4] = system: NCI-H358 cells (KRAS G12C); test: Cell viability assay (Cell Counting Kit-8, 3-day); type: cell-based, human; conditions: Homo sapiens, NCI-H358, 72 h, NCI-H358, 72 hrs incubation
Procedure: as §4, §5

SW620 cells (KRAS G12V) = test: Cell viability assay (Cell Counting Kit-8, 3-day); type: cell-based, human; conditions: Homo sapiens, SW-620; SW620, 72 hrs incubation
Procedure: as §4, §5

| Structure (SMILES) | IC50 [1] | IC50 [2] | IC50 [3] | IC50 (AGS cells (KRAS G12D)) | IC50 [4] | IC50 (SW620 cells (KRAS G12V)) |
| --- | --- | --- | --- | --- | --- | --- |
| CO[C@@H](C)c1ncc(N2CCN(C)CC2)cc1-c1c2c3cc(cc4c3n1CCC4)-c1csc(n1)C[C@H](NC(=O)[C@H]1C[C@@H]1c1ncccn1)C(=O)N1CCC[C@H](N1)C(=O)OCC(C)(C)C2 [Example 80, (1S,2S)-N-[(7S,13S)-(20M)-20-[2-[(1S)-1-methoxyethyl]-5-(4-methylpiperazin-1-yl)-3-pyridyl]-17,17-dimethyl-8,14-dioxo-15-oxa-4-thia-9,21,30,31-tetrazahexacyclo[23.3.1.1^2,5.1^9,13.0^19,27.0^21,26]hentriaconta-1 (28),2,5 (31), 19,25 (29),26-hexaen-7-yl]-2-pyrimidin-2-yl-cyclopropanecarboxamide] | 5.1 nM | 47.4 nM | 4.2 nM | – | – | – |
| CO[C@@H](C)c1ncc(N2CCN(C)CC2)cc1-c1c2c3cc(cc4c3n1CCC4)-c1csc(n1)C[C@H](NC(=O)[C@@H]1C[C@H]1c1ccncc1)C(=O)N1CCC[C@H](N1)C(=O)OCC(C)(C)C2 [Example 58, (1R,2R)-N-[(7S,13S)-(20M)-20-[2-[(1S)-1-methoxyethyl]-5-(4-methylpiperazin-1-yl)-3-pyridyl]-17,17-dimethyl-8,14-dioxo-15-oxa-4-thia-9,21,30,31-tetrazahexacyclo[23.3.1.1^2,5.1^9,13.0^19,27.0^21,26]hentriaconta-1 (28),2,5 (31),19,25 (29),26-hexaen-7-yl]-2-(4-pyridyl)cyclopropanecarboxamide] | 6.4 nM | 20.5 nM | 4.9 nM | 38.5 nM | 7.6 nM | 2 nM |
| CO[C@@H](C)c1ncc(N2CCN(CC(F)(F)F)CC2)cc1-c1c2c3cc(cc4c3n1CCO4)-c1csc(n1)C[C@H](NC(=O)[C@H]1C[C@@H]1c1ccccc1)C(=O)N1CCC[C@H](N1)C(=O)OCC(C)(C)C2 (atropisomer, axis not shown; (M)) [Example 44, (1S,2S)-N-[(7S,13S)-(20M)-20-[2-[(1S)-1-methoxyethyl]-5-[4-(2,2,2-trifluoroethyl)piperazin-1-yl]-3-pyridyl]-17,17-dimethyl-8,14-dioxo-15,24-dioxa-4-thia-9,21,30,31-tetrazahexacyclo[23.3.1.1^2,5.1^9,13.0^19,27.0^21,26]hentriaconta-1 (29),2,5 (31),19,25,27-hexaen-7-yl]-2-phenyl-cyclopropanecarboxamide] | 2.1 nM | 9.1 nM | 1.4 nM | 33.9 nM | 16.8 nM | 3.1 nM |
| CO[C@@H](C)c1ncc(N2CCN(C)CC2)cc1-c1c2c3cc(cc4c3n1CC(F)(F)C4)-c1csc(n1)C[C@H](NC(=O)[C@H]1C[C@@H]1C(F)F)C(=O)N1CCC[C@H](N1)C(=O)OCC(C)(C)C2 (atropisomer, axis not shown; (M)) [Example 31] | 2.3 nM | 19.8 nM | 1.6 nM | 21.8 nM | 3.1 nM | < 0.6 nM |
| CO[C@@H](C)c1ncc(N2CCN(C)CC2)cc1-c1c2c3cc(cc4c3n1CCC4)-c1csc(n1)C[C@H](NC(=O)[C@H]1C[C@@H]1c1ccncc1)C(=O)N1CCC[C@H](N1)C(=O)OCC(C)(C)C2 [Example 57, (1S,2S)-N-[(7S,13S)-(20M)-20-[2-[(1S)-1-methoxyethyl]-5-(4-methylpiperazin-1-yl)-3-pyridyl]-17,17-dimethyl-8,14-dioxo-15-oxa-4-thia-9,21,30,31-tetrazahexacyclo[23.3.1.1^2,5.1^9,13.0^19,27.0^21,26]hentriaconta-1 (28),2,5 (31), 19,25 (29),26-hexaen-7-yl]-2-(4-pyridyl)cyclopropanecarboxamide] | 1.1 nM | 6.1 nM | 1.3 nM | 27.6 nM | 5.4 nM | 1.5 nM |
| CO[C@@H](C)c1ncc(N2CCN(C)CC2)cc1-c1c2c3cc(cc4c3n1CCC4)-c1csc(n1)C[C@H](NC(=O)[C@H]1CC[C@H](c3nnnn3C)CC1)C(=O)N1CCC[C@H](N1)C(=O)OCC(C)(C)C2 (atropisomer, axis not shown; (M)) [Example 70, trans-N-[(7S,13S)-(20M)-20-[2-[(1S)-1-methoxyethyl]-5-(4-methylpiperazin-1-yl)-3-pyridyl]-17,17-dimethyl-8,14-dioxo-15-oxa-4-thia-9,21,30,31-tetrazahexacyclo[23.3.1.1^2,5.1^9,13.0^19,27.0^21,26]hentriaconta-1 (29),2,5 (31),19,25,27-hexaen-7-yl]-4-(1-methyltetrazol-5-yl)cyclohexanecarboxamide] | 1.8 nM | 27.9 nM | 5.5 nM | 98.7 nM | 24.7 nM | 17.9 nM |
| CO[C@@H](C)c1ncc(N2CCOCC2)cc1-c1c2c3cc(cc4c3n1CC(C)(C)O4)-c1csc(n1)C[C@H](NC(=O)[C@H]1C[C@@H]1C)C(=O)N1CCC[C@H](N1)C(=O)OCC(C)(C)C2 (atropisomer, axis not shown; (M)) [Example 38, (1S,2S)-N-[(7S,13S)-(20M)-20-[2-[(1S)-1-methoxyethyl]-5-morpholino-3-pyridyl]-17,17,23,23-tetramethyl-8,14-dioxo-15,24-dioxa-4-thia-9,21,30,31-tetrazahexacyclo[23.3.1.1^2,5.1^9,13.0^19,27.0^21,26]hentriaconta-1 (28),2,5 (31),19,25 (29),26-hexaen-7-yl]-2-methyl-cyclopropanecarboxamide] | 8 nM | 59.4 nM | 5.5 nM | 120 nM | 89.4 nM | 18 nM |
| CO[C@@H](C)c1ncc(N2CCN(CC(F)(F)F)CC2)cc1-c1c2c3cc(cc4c3n1CC(F)(F)C4)-c1csc(n1)C[C@H](NC(=O)[C@H]1C[C@@H]1C)C(=O)N1CCC[C@H](N1)C(=O)OCC(C)(C)C2 (atropisomer, axis not shown; (M)) [Example 67, (1S,2S)-N-[(7S,13S)-23,23-difluoro-(20M)-20-[2-[(1S)-1-methoxyethyl]-5-[4-(2,2,2-trifluoroethyl)piperazin-1-yl]-3-pyridyl]-17,17-dimethyl-8,14-dioxo-15-oxa-4-thia-9,21,30,31-tetrazahexacyclo[23.3.1.1^2,5.1^9,13.0^19,27.0^21,26]hentriaconta-1 (28),2,5 (31),19,25 (29),26-hexaen-7-yl]-2-methyl-cyclopropanecarboxamide] | 2.4 nM | 31.8 nM | 3.2 nM | – | – | – |
| CO[C@@H](C)c1ncc(N2CCN(C)CC2)cc1-c1c2c3cc(cc4c3n1CCC4)-c1csc(n1)C[C@H](NC(=O)[C@@H]1C[C@H]1c1ccccc1F)C(=O)N1CCC[C@H](N1)C(=O)OCC(C)(C)C2 [Example 28, (1R,2R)-2-(2-fluorophenyl)-N-[(7S,13S)-(20M)-20-[2-[(1S)-1-methoxyethyl]-5-(4-methylpiperazin-1-yl)-3-pyridyl]-17,17-dimethyl-8,14-dioxo-15-oxa-4-thia-9,21,30,31-tetrazahexacyclo[23.3.1.1^2,5.1^9,13.0^19,27.0^21,26]hentriaconta-1 (28),2,5 (31),19,25 (29),26-hexaen-7-yl]cyclopropanecarboxamide] | 1.2 nM | 9.4 nM | 1.3 nM | 22.3 nM | 7 nM | 1.5 nM |

From patent US20240417410A1, “TRICYCLIC COMPOUNDS FOR THE TREATMENT OF CANCER” (Hoffmann-La Roche Inc., priority 2023, published 2024)
